Consider 8 compounds from patent US8729056B2, “Preventive and/or therapeutic agent of hand-foot syndrome” (Ono Pharmaceutical Co., Ltd., priority 2010, dated 2014).

In one data set the test system is Hand-Foot Syndrome. The conditions noted are these: patients with highest Hand-Foot Syndrome grade of 3; on average; Phase 2 clinical study in Japan; cited from earlier work.
The subject of data set [1] is Hand-Foot Syndrome caused by sorafenib tosilate administration. Briefly: Cases 3-6: effect of anticholinergic drugs on Hand-Foot Syndrome caused by sorafenib tosilate in kidney cancer patients. The format is in vivo, human. An excerpt:
(§1) In the present invention, the preventive and/or treatment effect of the anticholinergic drug against Hand-Foot Syndrome can be evaluated, for example, by the criteria of Hand-Foot Syndrome in Table 1, Table 2, and Table 3 as shown below. Table 1 is the criteria proposed by Blum, and appeared on page 485-493 in volume 17 of Journal Clinical Oncology published in 1999. Grade 0 is not referred to in this table, but it is understood as grade 0 if no symptom is observed. Table 2 is the National Cancer Institute-Common Toxicity Criteria Version 2.0 (NCI-CTC v2.0), and Table 3 is the National Cancer Institute-Common Terminology Criteria for Adverse Events Version 3.0 (NCI-CTCAE v3.0). Grade 0 is also not referred to in Table 3, but it is understood as grade 0 if no symptom is observed.
We examined the effect of imidafenacin in a patient with kidney cancer who developed Hand-Foot Syndrome caused by sorafenib tosilate administration (sorafenib 800 mg/day).
We examined the effect of imidafenacin in a patient with kidney cancer who developed Hand-Foot Syndrome caused by sorafenib tosilate administration.
From this point, Imidafenacin 0.1 mg was orally administered to the patient twice a day in addition to the urea ointment.
We examined the effect of solifenacin succinate in a patient with kidney cancer who developed Hand-Foot Syndrome caused by sorafenib tosilate administration (sorafenib 800 mg/day).
We examined the effect of tolterodine tartrate in a patient with kidney cancer who developed Hand-Foot Syndrome caused by sorafenib tosilate administration.

For data set [2] the following is noted: sweat from patients with Hand-Foot Syndrome administered the drug; cited from earlier work.
The conditions of data set [3]: WO1999/58478; cited from earlier work.
For data set [4] the following is noted: compared with tolterodine; Pharmacology and Toxicology Vol. 81, 1997; cited from earlier work.
Data set [5] has as its system Hand-Foot Syndrome caused by sunitinib malate administration. The data set is described as follows: Case 2: effect of imidafenacin on Hand-Foot Syndrome caused by sunitinib malate in a kidney cancer patient. The format is in vivo, human. The conditions noted are these: imidafenacin combined with urea ointment, heparinoid ointment and clobetasol propionate ointment, after eight days of such treatment.
From the text: as §1

In the case of `CCCCCOC(=O)Nc1nc(=O)n([C@@H]2O[C@H](C)[C@@H](O)[C@H]2O)cc1F` [capecitabine], the “period for recovery of Hand-Foot Syndrome after interruption” value in the data set with Hand-Foot Syndrome is given as “about two to three”.
Take `Cc1ncc(CO)c(CO)c1O.Cl` [pyridoxine hydrochloride]: the “change of Hand-Foot Syndrome” value in data set [1] (case 6, grade 3, urea ointment in addition to pyridoxine hydrochloride, sorafenib 800 mg/day, without tolterodine tartrate) is listed as “no improvements”.
As for `COc1cccc2c1C(=O)c1c(O)c3c(c(O)c1C2=O)C[C@@](O)(C(=O)CO)C[C@@H]3O[C@H]1C[C@H](N)[C@H](O)[C@H](C)O1` [doxorubicin], in data set [2], the “drug substance in sweat” value is recorded as “detected”.
Take `CNC(=O)c1cc(Oc2ccc(NC(=O)Nc3ccc(Cl)c(C(F)(F)F)c3)cc2)ccn1` [sorafenib tosilate]: in data set [2], the “drug substance in sweat” value is reported as “not detected”.
For `CC(C)C(=O)Oc1ccc(CO)cc1[C@H](CCN(C(C)C)C(C)C)c1ccccc1` [Fesoterodine, 2-[(1R)-3-(dipropan-2-ylamino)-1-phenylpropyl]-4-(hydroxymethyl)phenyl 2-methylpropanoate], the “metabolism after oral administration” value in data set [3] is “rapidly is metabolized to the 5-hydroxymethyl derivative”.
In the case of `Cc1nc(-c2ccccc2)nc(SCc2ccc(Cl)cc2)c1CO` [5-hydroxymethyl derivative], the anticholinergic activity entry in data set [4] is given as “equivalent to tolterodine”.
As to `O=C(O[C@H]1CN2CCC1CC2)N1CCc2ccccc2[C@@H]1c1ccccc1` [solifenacin succinate, (3R)-1-Azabicyclo[2.2.2]oct-3-yl(1S)-1-phenyl-3,4-dihydroisoquinoline-2(1H)-carboxylate], in data set [1] (case 5, continuous administration of solifenacin succinate after full recovery), the “recurrence of Hand-Foot Syndrome” value is “prevented”. Moreover, the “recovery from Hand-Foot Syndrome” value in data set [1] (case 5, solifenacin succinate 5 mg orally once a day, started at grade 2, 28 days after beginning) was “full recovery”.
With `Cc1nccn1CCC(C(N)=O)(c1ccccc1)c1ccccc1` [imidafenacin, 4-(2-Methyl-1H-imidazole-1-yl)-2,2-diphenylbutanamide], the “recovery from Hand-Foot Syndrome” value in data set [5] was “full recovery”; in data set [1] (case 3, imidafenacin continued in combination with heparinoid cream, after 22 days) it was “full recovery”. Besides, the “recurrence of Hand-Foot Syndrome” value in data set [1] (case 3, after full recovery, continuous administration of imidafenacin and the moisturizing agent) is reported as “prevented”.
